Results on seven molecules are retold here after patent US20210315893A1 (Galapagos NV, priority 2017, published 2021).

Experiment [1] deals with HFL-1 cells. The experiment is described as follows: IL-8 production assay (S1P induced IL-8). The experiment is classed as cell-based. The note with it: Homo sapiens, HFL1; S1P (1 μM) induced IL-8 in HFL-1 cells, starvation medium without HSA; read-out: IL8 EC50. In short, it runs like this: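 HFL-1 fibroblasts in low-serum medium were pretreated 1 h with a 10-point 1/3 series of compound starting at 30 μM (0.3% DMSO).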

For experiment [2], the target named is T1, human GPCR sphingosine 1-phosphate receptor 2 (Homo sapiens, UniProt O95136).
T1 construct: host or cells: CHO
The experiment is described as follows: S1PR2 antagonist Ca2+ flux assay. It counts as cell-based. The note with it: antagonist mode, CHO-S1PR2 cells, S1P at EC80, Ca2+ fluorescence; read-out: S1P2 EC50 (nM), S1P2 antagonist EC50. In a few lines:
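Antagonist mode: 15 min after compound addition, S1P (EC80) stimulates Fluo8-loaded, 1 h-starved CHO-S1PR2 cells, Ca2+ read over 3 min; a prior 3-min read checks compound agonism. EC50 from peak/baseline fluorescence ratio, normalised versus vehicle and S1P EC50 (antagonist) or EC100 (agonist).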

Experiment [3] deals with T2, human GPCR sphingosine 1-phosphate receptor 5 (Homo sapiens, UniProt Q9H228).
T2 construct: host or cells: CHO
The experiment is described as follows: S1PR5 selectivity Ca2+ flux assay (antagonist readout). It counts as cell-based. The following applies: CHO cells overexpressing human S1PR5 and Gq, agonist at EC80 (20 nM), read-out: S1P5 EC50 (nM), S1P5 antagonist EC50. In a few lines:
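Antagonist readout: after 15 min compound preincubation at 37° C, human S1PR5/Gq CHO cells loaded with Fluo 8 dye received an EC80 challenge of S1PR5-specific agonist, and fluorescence was recorded for 3 min. Maximal-over-background ratios, normalized as % inhibition, gave IC50 by logistic fit.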

The next experiment concerns the target T3, S1PR2 (Homo sapiens, UniProt O95136).
T3 construct: expressed in transfected cells
The experiment is described as follows: S1PR2 binding assay (competition with radioactively labeled S1P, SpA). The note with it: membranes from stable cell line over expressing S1PR2, SpA beads; read-out: S1P2 EC50 (nM), S1PR2 binding EC50. In short, it runs like this:
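Scintillation proximity read-out after 2 h room-temperature incubation of compound, [3H]S1P and S1PR2-overexpressing cell membranes on WGA-coated beads. Buffer: 20 mM Tris pH 7.5, 100 mM NaCl, 10 mM MgCl2, 1 mM Na3VO4, 0.4% fatty-acid-free BSA; plates counted immediately after centrifugation.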

The target in experiment [4] is T4, human GPCR sphingosine 1-phosphate receptor 1 (Homo sapiens, UniProt P21453).
T4 construct: host or cells: CHO
The experiment is described as follows: S1PR1 selectivity Ca2+ flux assay (antagonist readout). The note with it: antagonist readout, CHO cells overexpressing human S1PR1 and Gq, S1P at EC80 (6 nM); read-out: S1P1 EC50 (nM), S1P1 antagonist EC50. It counts as cell-based. In a few lines:
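Antagonist mode: S1P challenge follows 15 min compound preincubation at 37 °C. Cells are CHO stably expressing human S1PR1, serum-starved 1 h (0.1% FAF BSA), loaded with Fluo 8. Peak-over-baseline fluorescence ratio is normalized to positive/negative controls; IC50 from logistic curve fit.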

Experiment [5] concerns HFL-1 cells. The experiment is described as follows: IL8 assay in the presence of Human Serum Albumin. The note with it: HFL1, read-out: HSA IL8 EC50.

T2 sequence (Q9H228 whole entry): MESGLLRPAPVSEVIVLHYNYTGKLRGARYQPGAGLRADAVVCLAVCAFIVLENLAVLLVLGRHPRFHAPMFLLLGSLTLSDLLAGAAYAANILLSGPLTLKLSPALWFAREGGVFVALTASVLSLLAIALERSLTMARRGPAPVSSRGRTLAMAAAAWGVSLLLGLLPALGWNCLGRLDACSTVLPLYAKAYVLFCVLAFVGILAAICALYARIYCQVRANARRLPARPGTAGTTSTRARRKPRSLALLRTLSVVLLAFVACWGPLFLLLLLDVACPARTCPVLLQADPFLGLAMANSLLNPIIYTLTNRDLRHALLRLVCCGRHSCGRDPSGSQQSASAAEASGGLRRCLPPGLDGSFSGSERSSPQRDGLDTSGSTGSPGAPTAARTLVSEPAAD
T4 sequence (P21453 whole entry): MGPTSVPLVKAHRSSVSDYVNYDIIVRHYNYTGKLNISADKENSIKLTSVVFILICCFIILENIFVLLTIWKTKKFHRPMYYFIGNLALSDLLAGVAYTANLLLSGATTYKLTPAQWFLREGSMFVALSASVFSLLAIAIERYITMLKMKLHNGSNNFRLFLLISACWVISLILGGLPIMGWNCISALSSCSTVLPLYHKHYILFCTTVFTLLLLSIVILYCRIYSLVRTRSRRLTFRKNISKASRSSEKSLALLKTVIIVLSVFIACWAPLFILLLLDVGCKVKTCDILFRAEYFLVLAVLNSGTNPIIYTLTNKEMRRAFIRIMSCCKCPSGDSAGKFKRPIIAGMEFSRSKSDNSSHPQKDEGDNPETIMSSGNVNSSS
T3 sequence (O95136 whole entry): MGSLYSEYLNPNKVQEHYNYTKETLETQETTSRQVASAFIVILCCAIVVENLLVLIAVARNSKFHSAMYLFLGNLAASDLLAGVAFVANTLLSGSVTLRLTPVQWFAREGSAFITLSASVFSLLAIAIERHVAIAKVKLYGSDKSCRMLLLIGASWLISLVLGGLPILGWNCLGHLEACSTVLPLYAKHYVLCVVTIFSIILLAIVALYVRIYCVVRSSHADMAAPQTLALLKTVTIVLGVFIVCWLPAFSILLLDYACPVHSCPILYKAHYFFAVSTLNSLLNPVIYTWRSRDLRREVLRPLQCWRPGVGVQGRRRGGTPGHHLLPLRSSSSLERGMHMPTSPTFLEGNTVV
T1 sequence (O95136 whole entry): as above

Regarding `CCOc1cc2[nH]c(Cc3nn(CC(=O)N4CCOCC4)c(=O)c4c3CCCC4)nc2cc1C#N` [Compound 167, 6-ethoxy-2-[[3-(2-morpholino-2-oxo-ethyl)-4-oxo-5,6,7,8-tetrahydrophthalazin-1-yl]methyl]-1H-benzimidazole-5-carbonitrile], the half-maximal effective concentration (EC50) in the experiment on HFL-1 cells [1] was 6.61 nM; in experiment [2], 13.2 nM; in experiment [3], 19800 nM; on S1PR2, 191 nM; in experiment [4], at least 19800 nM; in the experiment with HFL-1 cells [5], 18.4 nM.
Turning to `CCOc1cc2[nH]c(Cc3nn(CC(=O)N4CCOCC4)c(=O)c4ccccc34)nc2cc1C(F)(F)F` [Compound 168, 4-[[6-ethoxy-5-(trifluoromethyl)-1H-benzimidazol-2-yl]methyl]-2-(2-morpholino-2-oxo-ethyl)phthalazin-1-one], the EC50 was 4.57 nM in the experiment on HFL-1 cells [1]; 11.9 nM in experiment [2]; 19800 nM in experiment [3]; 86.4 nM at S1PR2; at least 19800 nM in experiment [4]; 28.1 nM in the experiment with HFL-1 cells [5].
As to `O=C(Cn1cc(Cc2nc3cc(OCC(F)F)c(Cl)cc3[nH]2)c2ccccc2c1=O)N1CCOCC1` [Compound 169, 4-[6-Chloro-5-(2,2-difluoro-ethoxy)-1H-benzoimidazol-2-ylmethyl]-2-(2-morpholin-4-yl-2-oxo-ethyl)-2H-isoquinolin-1-one], the concentration for a half-maximal effect (EC50) with HFL-1 cells [1] was 48.7 nM; in experiment [2], 19.9 nM; in experiment [3], 19800 nM; at S1PR2 it was 375 nM; in experiment [4] it was at least 19800 nM; in the experiment on HFL-1 cells [5], 400 nM.
For `CCOc1cc2[nH]c(Cc3nn(CC(=O)N4CCOCC4)c(=O)c4ccccc34)nc2cc1C#N` [Compound 170, 6-ethoxy-2-[[3-(2-morpholino-2-oxo-ethyl)-4-oxo-phthalazin-1-yl]methyl]-1H-benzimidazole-5-carbonitrile], the EC50 was 10.6 nM in the experiment on HFL-1 cells [1]; 42.5 nM in experiment [2]; 19800 nM in experiment [3]; 112 nM at S1PR2; at least 19800 nM in experiment [4]; 137 nM with HFL-1 cells [5].
For `CC(F)(F)COc1cc2[nH]c(Cc3nn(CC(=O)N4CCOCC4)c(=O)c4ccccc34)nc2cc1Cl` [Compound 172, 4-[[5-chloro-6-(2,2-difluoropropoxy)-1H-benzimidazol-2-yl]methyl]-2-(2-morpholino-2-oxo-ethyl)phthalazin-1-one], the EC50 in the experiment with HFL-1 cells [1] is 29.1 nM; in experiment [2], 7.57 nM; in experiment [3], 19800 nM; at S1PR2, 15.8 nM; in experiment [4], at least 19800 nM; in the experiment on HFL-1 cells [5], 33.4 nM.
For `COCCOc1cc2[nH]c(Cc3nn(CC(=O)N4CCOCC4)c(=O)c4ccccc34)nc2cc1Cl` [Compound 174, 4-[[5-chloro-6-(2-methoxyethoxy)-1H-benzimidazol-2-yl]methyl]-2-(2-morpholino-2-oxo-ethyl)phthalazin-1-one], the EC50 is 20.1 nM with HFL-1 cells [1]; 34.9 nM in experiment [2]; 19800 nM in experiment [3]; 56.8 nM at S1PR2; at least 19800 nM in experiment [4]; 58.9 nM in the experiment on HFL-1 cells [5].
Consider `N#Cc1cc2[nH]c(Cc3nn(CC(=O)N4CCOCC4)c(=O)c4ccccc34)nc2cc1OCC(F)(F)F` [Compound 175, 2-[[3-(2-morpholino-2-oxo-ethyl)-4-oxo-phthalazin-1-yl]methyl]-6-(2,2,2-trifluoroethoxy)-3H-benzimidazole-5-carbonitrile], for which the EC50 with HFL-1 cells [1] is 10.9 nM; in experiment [2] it was 11.4 nM; in experiment [3] it was 19800 nM; at S1PR2, 78.9 nM; in experiment [4], at least 19800 nM; with HFL-1 cells [5], 61.6 nM.
